Measured values reported in PubChem BioAssay (NCI).
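Tested at 5 concentrations; 48 h exposure; 96-well plates; endpoints linearly interpolated, else capped at highest concentration. TGI marks complete inhibition of growth.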

Columns and labels:
Assay in all cases: NCI anticancer screen, dose series, 48 h
DU-145 prostate = test system: DU-145 prostate
UACC-257 melanoma = test system: UACC-257 melanoma
MCF7 breast = test system: MCF7 breast
RXF 393 renal = test system: RXF 393 renal
HCC-2998 colon = test system: HCC-2998 colon
RPMI-8226 leukemia = test system: RPMI-8226 leukemia
HCT-116 colon = test system: HCT-116 colon
U251 CNS = test system: U251 CNS
SK-MEL-28 melanoma = test system: SK-MEL-28 melanoma
786-0 renal = test system: 786-0 renal
HT29 colon = test system: HT29 colon

SMILES | TGI (DU-145 prostate) [µM] | TGI (UACC-257 melanoma) [µM] | TGI (MCF7 breast) [µM] | TGI (RXF 393 renal) [µM] | TGI (HCC-2998 colon) [µM] | TGI (RPMI-8226 leukemia) [µM] | TGI (HCT-116 colon) [µM] | TGI (U251 CNS) [µM] | TGI (SK-MEL-28 melanoma) [µM] | TGI (786-0 renal) [µM] | TGI (HT29 colon) [µM]
CC1=CCC[C@]2(C)C1=CC(=O)O[C@H]2c1ccoc1 | > 100 | > 100 | > 100 | > 100 | > 100 | > 100 | > 100 | > 100 | > 100 | > 100 | > 100
CC(C)(CCCCC(C)(C)NCC1COc2ccccc2O1)NCC1COc2ccccc2O1 (stereo not drawn) | > 10 | 4.1 | > 10 | 8.83 | 4.73 | > 10 | > 10 | > 10 | 3.66 | > 10 | 7.08
O=c1[nH]n(Cc2ccccc2CCl)c2ccc([N+](=O)[O-])cc12 | > 100 | > 100 | > 100 | > 100 | 42.4 | > 100 | > 100 | > 100 | > 100 | > 100 | > 100
CC(C)C(Cl)CC/C(CBr)=C(\Cl)CCl (stereo not drawn) | 26.3 | 11 | 1.29 | 11.3 | 26.7 | 5 | 8.35 | 23.1 | 12 | 5.04 | 11.7
Cc1cc(NCC2CC/C(=C\C=C\c3ccccc3)C2=O)no1 (stereo not drawn) | > 100 | > 100 | > 100 | > 100 | > 100 | 88.8 | > 100 | > 100 | > 100 | > 100 | > 100
Nc1c(Cl)c([N+](=O)[O-])cc2c1OCCCCO2 | > 100 | > 100 | > 100 | > 100 | > 100 | > 100 | > 100 | 8.48 | > 100 | > 100 | > 100
Cc1ccccc1NC(=O)/C(C#N)=N\Nc1nc[nH]c1C(N)=O | > 100 | > 100 | > 100 | > 100 | > 100 | > 100 | > 100 | > 100 | > 100 | > 100 | > 100
CCCCc1ccc(N2C(=O)c3cccnc3S2(=O)=O)cc1 | > 100 | > 100 | > 100 | > 100 | > 100 | > 100 | > 100 | > 100 | > 100 | > 100 | > 100
